Publication PMC12299847, “Macroalgae-Inspired Brominated Chalcones as Cosmetic Ingredients with the Potential to Target Skin Inflammaging” (Marine Drugs, 2025)

Key:
HaCaT keratinocytes = assay: Resazurin cell viability assay in HaCaT keratinocytes; assay type: cell-based, human; settings: HaCaT, 24 h, significant effects only at 62.5 μM and 125 μM
Experimental: (§1) To evaluate the effects of chalcones 1–7 on cell viability after 24 h, a resazurin assay was performed using two cell lines: human HaCaT keratinocytes (HaCaT, CLS 300493), representing the epidermal layer, and murine RAW 264.7 macrophages (RAW 264.7, ATCC TIB-71), which model immune cells involved in dermal inflammatory responses. For the keratinocyte cell line, all seven brominated and non-brominated chalcones were tested across a concentration range from 2.5 μM to 125 μM (Figure 2).
(§2) Human keratinocytes (HaCaT, CLS 300493, Eppelheim, Germany) were cultured in DMEM supplemented with heat-inactivated FBS, and a penicillin and streptomycin antibiotic solution. The cell culture of keratinocytes was washed with 6 mL of phosphate buffer solution with 0.05% EDTA (Sigma-Aldrich, St. Louis, MO, USA) and detached using 3 mL of 0.05% trypsin + 0.02% EDTA in PBS solution when the cells reached 70–80% confluence in cell culture flasks. DMEM was also used to cultivate the mouse macrophage cell line (RAW 264.7, ATCC TIB-71, Manassas, VA, USA) together with 10% (v/v) non-inactivated FBS, 1.5 g/L sodium bicarbonate, and 100 U/mL penicillin and 100 μg/mL streptomycin stock (antibiotic solution). The macrophage culture was mechanically detached using a cell scraper, and the final amount of DMEM media with the cells was sub-cultured in a 1:10 ratio to the cellular suspension.
(§3) The resazurin reduction assay was employed to evaluate the metabolic activity of human epidermal keratinocyte (HaCaT) and murine macrophage (RAW264.7) cell lines, as outlined in a previous study. In brief, HaCaT cells (1.0 × 10^5 cells/mL) and RAW264.7 cells (5.0 × 10^4 cells/mL) were seeded in 96-well plates (200 μL/well) and incubated overnight at 37 °C to allow for cell attachment. Following this, the cells were treated with different concentrations of the test compounds and kept at 37 °C for 24 h. After 20 h, resazurin (500 μM in sterile phosphate buffer solution, pH 7.4) was added to each well to achieve a final concentration of 50 μM, followed by an additional incubation of 4 h. Absorbance was then measured at wavelengths of 570 and 620 nm using a SpectraMax Plus 384 absorbance microplate spectrophotometer (Molecular Devices, San Jose, CA, USA). Each experiment was conducted in triplicate, with a minimum of three independent assays. The results were graphically presented as the percentage of cell viability versus chemical concentration, relative to the control.
Figure 2 Cytotoxicity of chalcones 1–7 using a resazurin reduction assay in HaCaT cells by comparison with the control. Bar graphs represent the mean ± SEM of at least three independent experiments performed in triplicate. Statistical analysis: one ANOVA with Dunnett’s multiple comparisons test, where p < 0.05 was considered significant when compared to the control condition. * p < 0.05, ** p < 0.01, and *** p < 0.0005.

[1] = tested on: HaCaT cells transfected with an Nrf2 luciferase reporter construct; assay: Cell viability (resazurin) in KeratinoSens cells; assay type: cell-based, human
Experimental: Selected compounds (chalcones 1 and 2), and the positive control, DMF, were dissolved in sterile DMSO. Intermediate dilutions were prepared in culture medium, including the final concentration to be added to the 96-well plate, with a final volume of 200 µL per well. The KeratinoSens™ assay was conducted as previously described. In brief, cells were seeded at a density of 10,000 cells per well in 96-well white opaque plates (Greiner Bio-One GmbH, cat. no. 655083, Kremsmünster, Austria) and incubated for 24 h. The medium was then replaced with fresh medium containing 1% FBS and the test compounds, and cells were incubated for an additional 24 and 48 h. DMF was used as the positive control since it is a known Nrf2 activator. Cell viability was assessed in the same cells using resazurin. After 20 or 44 h of exposure to the test compounds, 50 µM of resazurin solution (in sterile PBS) was added to each well, and the plates were incubated for 4 h at 37 °C, 5% CO2 Following the resazurin incubation, the supernatant was transferred to a transparent 96-well plate, and absorbance was measured at 570 and 620 nm using a Synergy HT multi-mode microplate reader (BioTek, Bad Friedrichshall, Germany). […] Luminescence was then measured using a FLUOstar OMEGA Microplate Reader (BMG Labtech GmbH, Ortenberg, Germany). […]

RAW 264.7 macrophages = assay: Resazurin cell viability assay in RAW 264.7 macrophages; assay type: cell-based, murine; settings: RAW 264.7, 24 h, 2.5 to 125 μM
Experimental: as §1
To evaluate the cytotoxic effects of brominated and non-brominated chalcones 1–7 on macrophages, different concentration ranges were applied based on the response profiles previously observed for keratinocytes (Figure 3). […] For this set of chalcones, a similar tendency was observed: a lower cytotoxic characteristic of chalcone 4, which contained bromine atoms in both aromatic rings, compared to chalcones 5 (brominated in only the aromatic A ring) and 6 (non-brominated).
as §2
as §3, with “The results were graphically presented as the percentage of cell viability versus chemical concentration, relative to the control.” left out

COc1cc(Br)c(/C=C/C(=O)c2cc(OC)c(OC)cc2Br)cc1OC [Chalcone 1]
maximal reduction in viability (HaCaT keratinocytes): ≤ 25% | effect on cell viability ([1]; 24 h, 5 µM and 7.5 µM): without affecting cell viability | effect on cell viability ([1]; 48 h): decrease in cell viability | cytotoxicity towards macrophages (RAW 264.7 macrophages): no cytotoxicity
